These are literature values, as cited in patent US8889867B2, “Solid forms and process for preparing” (Corcept Therapeutics, Inc., priority 2009, dated 2014).

Data set [1] concerns patients with Cushing's syndrome.
The target of data set [2] is glucocorticoid receptor (GR) (Homo sapiens, UniProt P04150). Conditions: Bertagna (1984).
Chain of glucocorticoid receptor (GR) (P04150 whole entry): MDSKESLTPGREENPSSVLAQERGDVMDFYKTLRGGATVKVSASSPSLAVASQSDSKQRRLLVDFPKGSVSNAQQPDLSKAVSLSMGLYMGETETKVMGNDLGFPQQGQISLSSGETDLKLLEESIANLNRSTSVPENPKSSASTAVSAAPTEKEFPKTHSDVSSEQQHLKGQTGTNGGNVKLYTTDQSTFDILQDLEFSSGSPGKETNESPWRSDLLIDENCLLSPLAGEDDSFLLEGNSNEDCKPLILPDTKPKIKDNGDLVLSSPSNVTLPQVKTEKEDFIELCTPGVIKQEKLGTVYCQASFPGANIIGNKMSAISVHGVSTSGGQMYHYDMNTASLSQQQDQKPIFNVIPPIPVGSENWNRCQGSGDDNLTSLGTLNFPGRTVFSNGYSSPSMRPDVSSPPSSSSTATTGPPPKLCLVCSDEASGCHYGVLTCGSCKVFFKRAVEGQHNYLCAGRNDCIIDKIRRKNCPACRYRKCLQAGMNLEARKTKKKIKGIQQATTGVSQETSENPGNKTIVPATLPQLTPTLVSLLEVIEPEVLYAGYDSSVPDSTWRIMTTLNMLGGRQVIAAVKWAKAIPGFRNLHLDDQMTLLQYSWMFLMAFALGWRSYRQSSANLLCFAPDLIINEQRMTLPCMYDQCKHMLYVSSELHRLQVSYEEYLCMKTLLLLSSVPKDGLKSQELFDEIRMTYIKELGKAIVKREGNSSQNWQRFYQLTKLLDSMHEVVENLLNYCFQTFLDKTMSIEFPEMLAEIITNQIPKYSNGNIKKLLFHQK

With `CC#C[C@]1(O)CC[C@H]2[C@@H]3CCC4=CC(=O)CCC4=C3[C@@H](c3ccc(N(C)C)cc3)C[C@@]21C` [mifepristone], in data set [1] (400 to 800 mg per day, severe Cushing Syndrome due to adrenal cancers and ectopic ACTH secretion from lung cancer, Van der Lely (1991, 1993)), the “reversal of acute psychosis” value was “useful in rapidly reversing acute psychosis”. Moreover, the “patients' conditions, including psychiatric status” value in data set [1] (Cushing's syndrome patients, Chrousos (1989), Sartor (1996)) was “improved the patients' conditions”. For the same molecule, in data set [2], the “anti-glucocorticoid effect in humans” value was “effective anti-glucocorticoid agent”.
